# Laboratory results as given in publication PMC7216583 (Parasites & Vectors, 2020).
# pIC50, pKi: −log10 of the molar value. Where a name gives a salt, the structure may show the parent alone. Read-outs that look alike come from different tables or passages of the source.
# Assays:
# Aurora C [1] = test system: Aurora C; set-up: method as in library vendor description; conditions: ref library vendor description; cited from earlier work
# [2] = test system: Toxoplasma gondii RH-2F tachyzoites; test: microbe, parasite or virus in culture; conditions: 72 h
# in vitro = conditions: human; for viability at 72 h: Host viability (%) mean
# Ret = test system: Ret; set-up: method as in library vendor description; conditions: ref library vendor description; cited from earlier work
# FGFR1 = test system: FGFR1; set-up: method as in library vendor description; conditions: ref library vendor description; cited from earlier work
# VEGFR2 [3] = test system: VEGFR2; set-up: method as in library vendor description; conditions: ref library vendor description; cited from earlier work
# Syk = test system: Syk; set-up: method as in S-inhibitor; conditions: ref S-inhibitor; cited from earlier work
# Flt1 = test system: Flt1; set-up: method as in library vendor description; conditions: ref library vendor description; cited from earlier work
# c-Kit [4] = test system: c-Kit; set-up: method as in library vendor description; conditions: ref library vendor description; cited from earlier work
# HIV protease = target: HIV protease; set-up: method as in S-inhibitor; conditions: ref S-inhibitor; cited from earlier work
# VEGFR3 = test system: VEGFR3; set-up: method as in library vendor description; conditions: ref library vendor description; cited from earlier work
# PDGFRβ = test system: PDGFRβ; set-up: method as in library vendor description; conditions: ref library vendor description; cited from earlier work
# S6K1 = test system: S6K1; set-up: method as in S-inhibitor; conditions: ref S-inhibitor; cited from earlier work
# CDK7 = test system: CDK7; set-up: method as in S-inhibitor; conditions: ref S-inhibitor; cited from earlier work
# c-Kit [5] = test system: c-Kit; set-up: method as in S-inhibitor catalog; conditions: vendor brief description; ref S-inhibitor catalog; cited from earlier work
# Aurora A = test system: Aurora A; set-up: method as in S-inhibitor; conditions: ref S-inhibitor; cited from earlier work
# CCR5 = conditions: ref S-inhibitor, cited from earlier work
# PDGFR = conditions: read-out: IC50 PDGFR; ref library vendor description; cited from earlier work
# EGFR = test system: EGFR; set-up: method as in library vendor description; conditions: ref library vendor description; cited from earlier work
# PI3Kδ = test system: PI3Kδ; set-up: method as in library vendor description; conditions: ref library vendor description; cited from earlier work
# VEGFR2 [6] = test system: VEGFR2; set-up: method as in S-inhibitor catalog; conditions: vendor brief description; ref S-inhibitor catalog; cited from earlier work
# Aurora C [7] = test system: Aurora C; set-up: method as in S-inhibitor catalog; conditions: vendor brief description; ref S-inhibitor catalog; cited from earlier work
# Aurora B = test system: Aurora B; set-up: method as in S-inhibitor catalog; conditions: vendor brief description; ref S-inhibitor catalog; cited from earlier work
# p110γ = test system: p110γ; set-up: method as in S-inhibitor; conditions: ref S-inhibitor; cited from earlier work
# p110β = test system: p110β; set-up: method as in S-inhibitor; conditions: ref S-inhibitor; cited from earlier work
# mTOR = test system: mTOR; set-up: method as in S-inhibitor; conditions: ref S-inhibitor; cited from earlier work
# Flt4 = test system: Flt4; set-up: method as in library vendor description; conditions: ref library vendor description; cited from earlier work
# VEGFR2 [8] = test system: VEGFR2; set-up: method as in S-inhibitor; conditions: ref S-inhibitor; cited from earlier work
# c-Met = test system: c-Met; set-up: method as in S-inhibitor; conditions: ref S-inhibitor; cited from earlier work
# HDAC = test system: HDAC; set-up: method as in S-inhibitor; conditions: ref S-inhibitor; cited from earlier work
# [9] = test system: Toxoplasma gondii RH-2F tachyzoites; conditions: 5 μM, 72 h
# OX1 = target: OX1; set-up: method as in S-inhibitor; conditions: ref S-inhibitor, cited from earlier work
# Abl = test system: Abl; set-up: method as in S-inhibitor; conditions: ref S-inhibitor; read-out: IC50, Abl; cited from earlier work
# HDAC8 = test system: HDAC8; set-up: method as in S-inhibitor; conditions: ref S-inhibitor; cited from earlier work
# [10] = read-out: Parasite inhibition (%) mean, preliminary screen, mean
# [11] = read-out: Parasite inhibition (%) mean, preliminary screen of compound library, mean
compound,measurement,setting,value
CO[C@@H](C(=O)N1Cc2n[nH]c(NC(=O)c3ccc(N4CCN(C)CC4)cc3)c2C1)c1ccccc1 [Danusertib (PHA-739358)],pIC50,Aurora C [1],7.21
same,inhibition of growth at 5 µM,[2]; [10],77.5%
same,viability at 72 h,in vitro,78.8%
same,pIC50,Ret,7.51
CCN(CC)CCCCNc1ncc2cc(-c3cc(OC)cc(OC)c3)c(NC(=O)NC(C)(C)C)nc2n1 [PD173074],pIC50,FGFR1,[…]
same,inhibition of growth at 5 µM,[2]; [10],76.8%
same,viability at 72 h,in vitro,58.8%
same,pIC50,VEGFR2 [3],6.70 to 7.00
COc1cc(Nc2ncc(F)c(Nc3ccc4c(n3)NC(=O)C(C)(C)O4)n2)cc(OC)c1OC [R406 (free base)],pIC50,Syk,7.39
Clc1ccc(Nc2nnc(Cc3ccncc3)c3ccccc23)cc1 [Vatalanib 2HCl (PTK787)],pIC50,Flt1,[…]
same,inhibition of growth at 5 µM,[2]; [10],-6.6%
same,pIC50,c-Kit [4],6.14
Cc1cccc(C)c1OCC(=O)N[C@@H](Cc1ccccc1)[C@@H](O)C[C@H](Cc1ccccc1)NC(=O)[C@H](C(C)C)N1CCCNC1=O [Lopinavir (ABT-378)],inhibition of growth at 5 µM,[2]; [10],0.9%
same,pKi,HIV protease,11.89
CN1CCN(c2ccc3nc(-c4c(N)c5c(F)cccc5[nH]c4=O)[nH]c3c2)CC1 [Dovitinib (TKI-258)],inhibition of growth at 5 µM,[2]; read-out: Parasite inhibition (%) mean,-12.9%
same,pIC50,PDGFRβ,7.57
CCc1cncnc1N1CCN(Cc2nc3cc(C(F)(F)F)ccc3[nH]2)CC1 [PF-4708671],pIC50,S6K1,6.80
same,pKi,S6K1,7.70
same,inhibition of growth at 5 µM,[2]; [10],60.6%
CC(C)c1cnn2c(NCc3ccccc3)cc(NCCCCCCN)nc12 [BS-181 HCl],inhibition of growth at 5 µM,[2]; [10],5.7%
same,pIC50,CDK7,7.68
CN1CCN(c2ccc3nc(-c4c(N)c5c(F)cccc5[nH]c4=O)[nH]c3c2)CC1,pIC50,c-Kit [5],8.70
CCN1CCN(C(=O)Cc2ccc(Nc3ncc(F)c(Nc4ccc(C(=O)Nc5ccccc5Cl)cc4)n3)cc2)CC1 [Aurora A Inhibitor I],inhibition of growth at 5 µM,[2]; [10],60.8%
same,pIC50,Aurora A,8.47
Maraviroc,pIC50,"CCR5; read-out: IC50, CCR5, MIP-1α, MIP-1α",8.48
same,pIC50,"CCR5; read-out: IC50, CCR5, MIP-1β, MIP-1β",8.14
same,pIC50,"CCR5; read-out: IC50, CCR5, RANTES, RANTES",8.28
Cc1ccc(NC(=O)c2ccc(CN3CCN(C)CC3)cc2)cc1Nc1nc(-c2cccnc2)cs1 [Masitinib (AB1010)],inhibition of growth at 5 µM,[2]; [10],10.5%
CC1(C)CNc2cc(NC(=O)c3cccnc3NCc3ccncc3)ccc21 [Motesanib Diphosphate (AMG-706)],inhibition of growth at 5 µM,[2]; [10],-36.6%
same,pIC50,PDGFR,7.08
same,pIC50,c-Kit [4],8.10
COc1cc2ncnc(Nc3cccc(Br)c3)c2cc1OC [PD153035 HCl],pIC50,EGFR,[…]
same,inhibition of growth at 5 µM,[2]; [10],-9.7%
Cc1ccccc1-n1c(Cn2cnc3c(N)ncnc32)nc2cccc(C)c2c1=O [IC-87114],inhibition of growth at 5 µM,[2]; [10],11.1%
N#CC1(c2ccc(NC(=O)c3cccnc3NCc3ccncc3)cc2)CCCC1 [Apatinib (YN968D1)],pIC50,VEGFR2 [6],9.00
same,inhibition of growth at 5 µM,[2]; [11],77.6%
same,viability at 72 h,in vitro,63.8%
Cc1csc(-c2nnc(Nc3ccc(Oc4ncccc4-c4ccnc(N)n4)cc3)c3ccccc23)c1 [AMG 900],pIC50,Aurora C [7],9.00
same,inhibition of growth at 5 µM,[2]; [11],85.9%
same,viability at 72 h,in vitro,33.6%
same,pIC50,Aurora B,8.40
COc1cc(Nc2nc3ccccc3nc2NS(=O)(=O)c2ccc(NC(=O)c3ccc(C)c(OC)c3)cc2)cc(OC)c1 [XL765 (SAR245409)],inhibition of growth at 5 µM,[2]; [10],46.6%
same,pIC50,p110γ,8.05
same,pIC50,p110β,6.95
same,pIC50,mTOR,6.80
CCN(CC)CCNC(=O)c1c(C)[nH]c(/C=C2\C(=O)Nc3ccc(F)cc32)c1C [Sunitinib Malate (Sutent)],inhibition of growth at 5 µM,[2]; [10],7.5%
COC(=O)N[C@H](C(=O)N[C@@H](Cc1ccccc1)[C@@H](O)CN(Cc1ccc(-c2ccccn2)cc1)NC(=O)[C@@H](NC(=O)OC)C(C)(C)C)C(C)(C)C [Atazanavir sulfate],inhibition of growth at 5 µM,[2]; [10],93.6%
same,viability,in vitro,90.7%
same,pKi,HIV protease,8.58
Cc1cc(CN2CCN(c3c(Br)cnc4[nH]c(-c5ccc(N6CCN(C)CC6)cc5)nc34)CC2)no1 [CCT137690],pIC50,Aurora C [7],7.72
same,inhibition of growth at 5 µM,[2]; [11],86.1%
same,viability at 72 h,in vitro,78.6%
same,pIC50,Aurora B,7.60
O=C(Nc1cccc(Cl)c1)Nc1ncc(CCNc2ncnc3ccsc23)s1 [SNS-314 Mesylate],pIC50,Aurora C [1],8.47
same,inhibition of growth at 5 µM,[2]; [10],79.4%
same,viability at 72 h,in vitro,32.9%
CCn1cc(-c2ccnc3[nH]c(-c4cccc(CN(C)C)c4)cc23)c(-c2ccc(NC(=O)N(C)C)cc2)n1 [GSK1070916],pIC50,Aurora C [7],8.19
same,inhibition of growth at 5 µM,[2]; [11],79.9%
same,viability at 72 h,in vitro,67.7%
COc1cc2c(Oc3ccc4[nH]c(C)cc4c3F)ncnc2cc1OCCCN1CCCC1 [Cediranib (AZD2171)],pIC50,Flt1,8.30
same,inhibition of growth at 5 µM,[2]; [10],0.4%
same,pIC50,VEGFR2 [3],9.30
same,pIC50,Flt4,≥ 8.52
COc1ccc(-c2ccc3c(N4CCOC[C@@H]4C)nc(N4CCOC[C@@H]4C)nc3n2)cc1CO [AZD8055],inhibition of growth at 5 µM,[2]; [10],45.7%
same,pIC50,mTOR,9.10
Nc1nccc(Oc2ccc(NC(=O)c3c[nH]cc(-c4ccc(F)cc4)c3=O)cc2F)c1Cl [BMS 794833],pIC50,VEGFR2 [8],7.82
same,inhibition of growth at 5 µM,[2]; [10],88.4%
same,viability at 72 h,in vitro,70.6%
same,pIC50,c-Met,8.77
Cn1cc(/C=C/C(=O)c2cccc(F)c2)cc1/C=C/C(=O)NO [MC1568],inhibition of growth at 5 µM,[2]; [10],35.4%
same,pIC50,HDAC,6.66
"Cc1cc(NC(=O)Nc2ccc(N(C)C)cc2)c2cc(F)cc(F)c2n1 [SB-408124, reference compound]",inhibition of growth at 5 µM,[2]; [10],-80.4%
same,effect on T. gondii growth in the screen,[9],no effect on T. gondii growth
same,pKi,OX1; membrane,7.57
same,pKi,OX1; whole cell,7.24
O=C(c1ccc(/C=C/c2n[nH]c3ccccc23)cc1)N1CCNCC1 [KW 2449],inhibition of growth at 5 µM,[2]; [10],70.2%
same,pIC50,Abl,7.85
same,viability at 72 h,in vitro,55.6%
same,pIC50,Aurora A,7.32
COc1ccc(Cn2ccc3ccc(C(=O)NO)cc32)cc1 [PCI-34051],pIC50,HDAC8,8.00
same,inhibition of growth at 5 µM,[2]; [10],5.7%
